Where two headings read alike, the source gives them in different places.
Molecular target: T1, human CYP4Z1 (Homo sapiens, UniProt Q86W10)
T1 sequence (Q86W10 1-505): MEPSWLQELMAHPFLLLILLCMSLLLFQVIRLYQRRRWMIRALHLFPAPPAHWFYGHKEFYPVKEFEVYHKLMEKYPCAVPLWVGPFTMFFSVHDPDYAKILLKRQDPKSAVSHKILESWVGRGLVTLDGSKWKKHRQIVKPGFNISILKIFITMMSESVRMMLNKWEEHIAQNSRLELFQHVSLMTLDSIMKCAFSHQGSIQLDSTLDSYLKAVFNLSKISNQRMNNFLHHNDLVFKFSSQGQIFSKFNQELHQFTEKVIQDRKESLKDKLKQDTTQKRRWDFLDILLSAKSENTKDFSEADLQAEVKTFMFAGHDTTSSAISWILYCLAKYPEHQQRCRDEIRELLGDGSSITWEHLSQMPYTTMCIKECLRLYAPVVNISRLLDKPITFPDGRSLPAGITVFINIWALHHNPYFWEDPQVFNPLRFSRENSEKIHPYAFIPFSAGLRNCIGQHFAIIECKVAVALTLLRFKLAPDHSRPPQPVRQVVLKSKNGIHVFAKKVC
Test: whole-cell biotransformation (substrate conversion) assay with fission yeast strains expressing CYP4Z1
Conditions: for metabolite formation / metabolism by human CYP4Z1: fission yeast strains AZ1 and AZ3, 1 mM substrate, 24 h at 30°C, HPLC (steroids, vitamin D, ebastine) or GC-MS (fatty acids)
Description: Possible substrates of human CYP4Z1 were tested by incubating the fission yeast strains AZ1 and AZ3 as well as the control strains NCYC2036 and CAD 62 with 1 mM substrate. […] Approximately 2*10^8 cells/mL were used per assay. Cells were grown in EMM medium containing 100 g/L glucose as well as the required supplements (leucine for AZ1 and CAD 62). Incubation was carried out either in 96 well microtiter plates or in 250 mL Erlenmeyer flasks with a cellulose stopper at a shaking velocity of 150 rpm for 24 h at 30°C.
Samples containing steroids as possible substrates were extracted with ethylacetate, evaporated and analyzed via HPLC (Alliance, Waters, USA) using a RP-18 column (Licrosphere 100, 5µM, Merck, Darmstadt) or a RP-8 column (Licrosphere 100, 5µM, Merck, Darmstadt). The column temperature was kept constant at 40°C. The mobile phase used for each sample is outlined in Suppl. Table. 1. When available, positive control reactions were carried out using strains expressing a P450 that is known to metabolize the respective substrate.
Fatty acid conversions were analyzed via GC-MS as previously described. Fatty acid extraction from S.pombe cells was performed using the Bligh and Dyer method.. Extracted samples were then evaporated to dryness, dissolved in a mixture of 500 µl methanol/toluene/sulphuric acid (50:50:2 V/V) and incubated at 55 °C overnight. 400µl of a 0.5 M […], 2 M KCl solution were added to the samples which were then centrifuged at RT, transferred to a GC vial and derivatised with 25 µl N-Methyl-N-(trimethylsilyl)trifluoroacetamide (37 °C for 1 hour). Fatty acid analysis was performed on an Agilent 6890N gas chromatograph coupled to an Agilent 5973N mass selective detector and equipped with a non-polar J&W DB-5HT capillary column, as described before.

| Structure (SMILES) | main hydroxylation position (MS fragmentation analysis) | other hydroxylated fatty acids detected besides the main product | main hydroxylation position (MS fragmentation analysis) (CYP4Z1 whole-cell biotransformation, GC-MS, main product) | other hydroxylated fatty acids detected besides the main product (CYP4Z1 whole-cell biotransformation, GC-MS, minor products) | metabolite formation / metabolism by human CYP4Z1 |
| --- | --- | --- | --- | --- | --- |
| CCCCCCCCCCCC(=O)O [lauric acid] | predominantly ω-4-hydroxylated | ω-2-, ω-3-, ω-5-hydroxylated | – | – | – |
| CCCCCCCCCCCCCC(=O)O [myristic acid] | – | – | mainly hydroxylated at position ω-2 | ω-3-, ω-4-, ω-5-hydroxlated | able to hydroxylate |
| C=C1CC[C@H](O)C/C1=C/C=C1\CCC[C@]2(C)[C@@H]([C@H](C)CCCC(C)C)CC[C@@H]12 [vitamin D3] | – | – | – | – | not metabolized |
